Experimental data as given in patent publication US5604233A, “Lactone stable formulation of 7-ethyl camptothecin and methods for uses thereof” (priority 1994, dated 1997).
“Also recorded” adds a separate entry of the source. Read-outs that look alike come from different tables or passages of the source.

Tests used:
preclinical tumor models = conditions: cited from earlier work
[1] = system: Topoisomerase I purified from human colon carcinoma cells or calf thymus; conditions: cited from earlier work
[2] = after CPT-11 versus HECPT administration; cited from earlier work
[3] = cited from earlier work
[4] = Pharmacokinetics of CPT-11 and HECPT, 5-day continuous infusion of CPT-11 (Ohe et al.); assay type: in vivo, human; conditions: e.g., above 30 mg/m^2/d
Source text: Initially, patients may be treated in a dose escalation protocol to determine the maximal tolerated dose of the ECPT formulation. […] For the purpose of this invention, "AUC" is defined as "area under the curve" and "CpMax" is defined as "the maximum plasma concentrate at the end of I.V.

P388 tumor = conditions: intermittent bolus days 1, 5, 9, i.p.; cited from earlier work
topoisomerase I [5] = conditions: cited from earlier work
MOLT3 cells = conditions: cited from earlier work
[6] = Fractional amounts of lactone species of CPT-11 and HECPT (Rothenburg et al.); assay type: in vivo, human; conditions: Table 4
Source text: Fractional Amounts of Lactone Species of CPT-11 and HECPT as
Function of Increasing Single Dose LV. From Rothenburg et al.

[7] = cited from earlier work; remark: listed apart in the source
L1210 leukemia = conditions: 10-100 mg/kg intraperitoneally; cited from earlier work
DNA single-strand breaks = conditions: cells exposed to HECPT; cited from earlier work
topoisomerase I [8] = conditions: P388 cells; cited from earlier work
[9] = cited from earlier work; remark: listed apart in the source
Cervical cancer = conditions: 100 mg/m^2 weekly, 150 mg/m^2 weeks; cited from earlier work
Colon cancer = conditions: 100 mg/m^2/week or 150 mg/m^2/Q 2 wks; cited from earlier work
[10] = system: Untreated Non Small Cell Lung Cancer; conditions: 100 mg/m^2 weekday; cited from earlier work
Small Cell Lung Cancer = conditions: 100 mg/m^2/week; cited from earlier work
human tumors = conditions: nude mice xenografts; cited from earlier work
[11] = cited from earlier work; for sporadic toxicities: relative to parent compound
[12] = system: Refractory or Relapsed Small Cell Lung Ca; conditions: 100 mg/m^2 weekly; cited from earlier work
Leukemia/Lymphoma = conditions: cited from earlier work
Tumor = conditions: cited from earlier work; for Toxicity: * dose limiting toxicity
[13] = first Rothenberg line, no dose given

CC[C@@]1(O)C(=O)OCc2c1cc1n(c2=O)Cc2cc3cc4c(cc3nc2-1)OCO4 [10,11 methylene dioxycamptothecin, 10,11 methylenedioxy camptothecin]
antitumor activity in preclinical studies (preclinical tumor models): very active

CCc1c2c(nc3ccc(O)cc13)-c1cc3c(c(=O)n1C2)COC(=O)[C@]3(O)CC [HECPT, 10-hydroxy 7-ethyl camptothecin]
inhibition of purified topoisomerase I [1]: inhibited
plasma concentration of HECPT in mice [2]: maintained longer after CPT-11 administration than after treatment with HECPT
AUC ([3]; CPT-11 25 mg/m^2/dx5): 1080 ng·h/mL
CpMax ([3]; CPT-11 25 mg/m^2/dx5): 0.0104 µg/mL
AUC ([3]; CPT-11 30 mg/m^2/dx5): 960 ng·h/mL
AUC ([3]; CPT-11 35 mg/m^2/dx5): 910 ng·h/mL
CpMax ([3]; CPT-11 35 mg/m^2/dx5): 0.0068 µg/mL
AUC ([3]; CPT-11 40 mg/m^2/dx5): 860 ng·h/mL
CpMax ([3]; CPT-11 40 mg/m^2/dx5): 0.0080 µg/mL
toxicity of HECPT relative to CPT-11 (suggested) ([3]; Ohe et al.): more toxic moiety
correlation between HECPT pharmacokinetics and dose or CPT-11 pharmacokinetics and toxicity ([3]; human subjects): lack of correlation
CpMax of HECPT with increases in dose of CPT-11 [4]: decrease
anti-tumor activity compared to CPT-11 in vivo (P388 tumor): little anti-tumor activity
reversibility of cleavable complex stabilization (topoisomerase I [5]): readily reversible
potency in generating single-strand DNA breaks relative to CPT-11 (MOLT3 cells): approximately 1000 fold
overall fractional concentration of the lactone species through a range of doses [6]: fairly constant
AUC ([7]; CPT-11 50 mg/m^2/wkx4): 195.5 ng·h/mL
CpMax ([7]; CPT-11 50 mg/m^2/wkx4): 0.0393 µg/mL
AUC ([7]; CPT-11 100 mg/m^2/wkx4): 214.8 ng·h/mL
CpMax ([7]; CPT-11 100 mg/m^2/wkx4): 0.0316 µg/mL
AUC ([7]; CPT-11 150 mg/m^2/wk X4): 123.2 ng·h/mL
CpMax ([7]; CPT-11 150 mg/m^2/wk X4): 0.0367 µg/mL
AUC ([7]; CPT-11 180 mg/m^2/wk X4): 232.8 ng·h/mL
CpMax ([7]; CPT-11 180 mg/m^2/wk X4): 0.0262 µg/mL
AUC [7, 13]: 62.2 ng·h/mL
results relative to CPT-11 under the same conditions (L1210 leukemia): inferior
greatest quantitative biochemical effect (DNA single-strand breaks): DNA single-strand breaks that occur during the S-phase
inhibitory activity against topoisomerase I relative to CPT-11 (topoisomerase I [8]): 3600 fold

CCc1c2c(nc3ccc(OC(=O)N4CCC(N5CCCCC5)CC4)cc13)-c1cc3c(c(=O)n1C2)COC(=O)[C@]3(O)CC [CPT-11, 7-Ethyl-10-[4-(1-piperidino)-1-piperidino]Carbonyloxy-Camptothecin]
Fractional amount of lactone species, CpMax Based ([9]; single dose I.V. CPT-11 50 mg/m^2): 0.51
Fractional amount of lactone species, CpMax Based ([9]; single dose I.V. CPT-11 80 mg/m^2): 0.44
Fractional amount of lactone species, CpMax Based ([9]; single dose I.V. CPT-11 100 mg/m^2): 0.53
Fractional amount of lactone species, CpMax Based ([9]; single dose I.V. CPT-11 125 mg/m^2): 0.55
Fractional amount of lactone species, CpMax Based ([9]; single dose I.V. CPT-11 150 mg/m^2): 0.42
Fractional amount of lactone species, CpMax Based ([9]; single dose I.V. CPT-11 180 mg/m^2): 0.42
Reported Toxicities: N/V (Cervical cancer): 51%
Reported Toxicities: Neutropenia (Cervical cancer): 89%
Reported Toxicities: alopecia (Cervical cancer): 38.1%
Reported Toxicities: diarrhea (Cervical cancer): 39.1%
Response (complete responses) (Cervical cancer): SCR
Response: PR (Cervical cancer): 8 PR
inhibition of purified topoisomerase I [1]: inhibited
Reported Toxicities: NN (Colon cancer): 35%
Reported Toxicities: Neutropenia (Colon cancer): 53%
Reported Toxicities: diarrhea (Colon cancer): 24%
Response (PR) (Colon cancer): 6/17
Response Rate (Colon cancer): 46%
Reported Toxicities [10]: anorexia, alopecia; also recorded: Neutropenia diarrhea; also recorded: nausea, vomiting
Response (PRs) [10]: 23/72
Response Rate [10]: 31.9%
interpatient variability in AUC and metabolism to HECPT ([3]; 5-day continuous intravenous infusion): large range of interpatient variability
Reported Toxicities: N/V (Small Cell Lung Cancer): 61.5%
Reported Toxicities: alopecia (Small Cell Lung Cancer): 40.0%
Reported Toxicities: diarrhea (Small Cell Lung Cancer): 53.8%
Response: CRs (Small Cell Lung Cancer): 2 CRs
Response: PRs (Small Cell Lung Cancer): 7 PRs
sensitivity of human tumors in relation to ability to produce HECPT (human tumors): independent of their ability to produce HECPT
sporadic toxicities [11]: less sporadic toxicities
overall fractional concentration of the lactone species through a range of doses [6]: fairly constant
AUC ([7]; CPT-11 50 mg/m^2/wkx4): 2970 ng·h/mL
CpMax ([7]; CPT-11 50 mg/m^2/wkx4): 1.70 µg/mL
AUC ([7]; CPT-11 100 mg/m^2/wkx4): 2230 ng·h/mL
CpMax ([7]; CPT-11 100 mg/m^2/wkx4): 1.29 µg/mL
AUC ([7]; CPT-11 150 mg/m^2/wk X4): 2810 ng·h/mL
CpMax ([7]; CPT-11 150 mg/m^2/wk X4): 1.56 µg/mL
AUC ([7]; CPT-11 180 mg/m^2/wk X4): 3830 ng·h/mL
CpMax ([7]; CPT-11 180 mg/m^2/wk X4): 1.97 µg/mL
AUC [7, 13]: 1130 ng·h/mL
CpMax [7, 13]: 0.89 µg/mL
Reported Toxicities [12]: Neutropenia, diarrhea
Reported Toxicities: pneumonitis [12]: 12.5%
Response (PRs) [12]: 7/15
Response Rate [12]: 47%
Response Rate (RR) (Leukemia/Lymphoma; 20 mg/m^2 bid x7): 25%
Response Rate (PR) (Leukemia/Lymphoma; 40 mg/m^2 Q0x5): 34%
Response Rate (Leukemia/Lymphoma; 200 mg Q3): No resp.
Reported Toxicities: Gastrointestinal (Leukemia/Lymphoma; in vivo): 76%
Reported Toxicities: Neutropenia (Leukemia/Lymphoma; in vivo): 91%
Reported Toxicities (Leukemia/Lymphoma; incidence not given): Thrombocytopenia
Toxicity (Tumor; Clavel et al, 90 min. QDx3 Q21 days, 115 mg/m^2/d (33-115)): Neutropenia* diarrhea; also recorded: nausea and vomiting; also recorded: alopecia
Tumor Type (responses) (Tumor; Clavel et al, Breast): 1 PR
Tumor Type (responses) (Tumor; Clavel et al, Mesothelioma): 1 PR
Toxicity (Tumor; Culine et al, 90 min. Q21 days, 150 mg/m^2/wk (50-150)): Neutropenia* diarrhea*; also recorded: vomiting, alopecia; also recorded: fatigue stomatitis
Tumor Type (responses) (Tumor; Culine et al, cervix): 1 PR
Tumor Type (responses) (Tumor; Culine et al, esophagus): 1 PR
Tumor Type (responses) (Tumor; Culine et al, ovarian): 1 PR
Tumor Type (responses) (Tumor; Culine et al, renal): 1 PR
Toxicity (Tumor; Negoro et al, 30 min infusion, 100 mg/m^2 (50-150)): Diarrhea*, N/V
Tumor Type (responses) (Tumor; Negoro et al, NS CLC): 2 PRs
Tumor Type (responses) (Tumor; Ohe et al, 120 hr CI): None
Toxicity (Tumor; Rothenberg et al, 90 mg QWx4 Q42 days, 180 mg/m^2/wk (50-180)): Neutropenia, nausea; also recorded: vomiting, alopecia
Tumor Type (responses) (Tumor; Rothenberg et al, Colon Ca): 2 PRs
Toxicity (Tumor; Rowinsky et al, 90 min infusion Q21 day, 240 mg/m^2 (100-345)): Neutropenia* vomiting; also recorded: diarrhea abd. pain; also recorded: flushing
Tumor Type (responses) (Tumor; Rowinsky et al, Cervix Ca): 1 PR
Tumor Type (responses) (Tumor; Rowinsky et al, Colon Ca): 1 PR

CC[C@@]1(O)C(=O)OCc2c1cc1n(c2=O)Cc2cc3c(CN(C)C)c(O)ccc3nc2-1 [topotecan]
activity relative to parent compound ([11]; human, in vivo): retain significant activity of the parent compound
sporadic toxicities [11]: less sporadic toxicities
